Several values for one entry are separate records, joined by “and”; a condition that tells them apart may be missing. Equal values may be shown once. Inconclusive results and toxic doses are left out. Non-standard residues stand in square brackets, D forms with d. Residues, ends and D or L forms follow the SMILES beside them. *: point of attachment. Cbz = O=C(OCc1ccccc1)*; Dha = C=C(N)C(=O)O
Test system: CD2F1 mice, L1210 leukemia ip, survival T/C
Assay: NCI In Vivo Anticancer Drug Screen. Data for tumor model L1210 Leukemia (intraperitoneal) in CD2F1 (CDF1) mice
Settings: higher = longer survival
How it was run: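 Antitumor effect is scored in animals hosting a serially transplanted tumor. Values compare compound-dosed animals against vehicle-only controls as a simple quotient.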

[1] = endpoint: mean survival time, dose: 100.0 mg/kg/injection, schedule: Q04DX003 (ip), vehicle: saline with Tween-80
[2] = endpoint: mean survival time, dose: 200.0 mg/kg/injection, schedule: Q04DX003 (ip), vehicle: saline with Tween-80
[3] = endpoint: mean survival time, dose: 400.0 mg/kg/injection, schedule: Q04DX003 (ip), vehicle: saline with Tween-80
[4] = endpoint: mean survival time, dose: 6.25 mg/kg/injection, schedule: Q01DX009 (ip), vehicle: saline with Tween-80
[5] = endpoint: mean survival time, dose: 25.0 mg/kg/injection, schedule: Q01DX009 (ip), vehicle: saline with Tween-80
[6] = endpoint: mean survival time, dose: 50.0 mg/kg/injection, schedule: Q01DX009 (ip), vehicle: saline with Tween-80
[7] = endpoint: mean survival time, dose: 100.0 mg/kg/injection, schedule: Q01DX009 (ip), vehicle: saline with Tween-80
[8] = endpoint: mean survival time, dose: 200.0 mg/kg/injection, schedule: Q01DX009 (ip), vehicle: saline with Tween-80
[9] = endpoint: mean survival time, dose: 400.0 mg/kg/injection, schedule: Q01DX009 (ip), vehicle: saline with Tween-80
[10] = endpoint: mean survival time, dose: 100.0 mg/kg/injection, schedule: Q01DX009 (ip), vehicle: Klucel (hydroxypropylcellulose) (HPC)
[11] = endpoint: mean survival time, dose: 200.0 mg/kg/injection, schedule: Q01DX009 (ip), vehicle: Klucel (hydroxypropylcellulose) (HPC)
[12] = endpoint: mean survival time, dose: 400.0 mg/kg/injection, schedule: Q01DX009 (ip), vehicle: Klucel (hydroxypropylcellulose) (HPC)
[13] = endpoint: mean survival time, dose: 12.5 mg/kg/injection, schedule: Q04DX003 (ip), vehicle: saline
[14] = endpoint: mean survival time, dose: 25.0 mg/kg/injection, schedule: Q04DX003 (ip), vehicle: saline
[15] = endpoint: mean survival time, dose: 100.0 mg/kg/injection, schedule: Q04DX003 (ip), vehicle: saline

SMILES: O=c1[nH]cc(NCCCc2ccccc2)c(=O)[nH]1
- T/C [1]: 102 % of control
- T/C [2]: 104 % of control
- T/C [3]: 96 % of control

SMILES: O=C(C(F)(F)F)C(F)(F)F (tested in a mixture with another compound)
- T/C (endpoint: mean survival time, dose: 25.0 mg/kg/injection, schedule: Q04DX003 (ip), vehicle: other): 100 % of control
- T/C (endpoint: mean survival time, dose: 50.0 mg/kg/injection, schedule: Q04DX003 (ip), vehicle: other): 95 % of control
- T/C (endpoint: mean survival time, dose: 100.0 mg/kg/injection, schedule: Q04DX003 (ip), vehicle: other): 94 % of control
- T/C (endpoint: mean survival time, dose: 200.0 mg/kg/injection, schedule: Q04DX003 (ip), vehicle: other): 92 % of control

SMILES: CC[N+](C)(CC)CCCOC(=O)C(c1ccccc1)c1ccccc1
- T/C [4]: 96 % of control
- T/C (endpoint: mean survival time, dose: 12.5 mg/kg/injection, schedule: Q01DX009 (ip), vehicle: saline with Tween-80): 96 % of control
- T/C [5]: 94 % of control

SMILES: CCOC/C=C\C1=CCCCC1
- T/C [6]: 97 % of control
- T/C [7]: 114 % of control
- T/C [8]: 105 % of control

SMILES: O=S(=O)(O)O.[Ga]
- T/C [5]: 120 % of control
- T/C [6]: 117 % of control
- T/C [7]: 90 % of control

SMILES: CC1(CC#N)CO1 (configuration not stated)
- T/C [1]: 96 % of control
- T/C [2]: 96 % of control
- T/C [3]: 96 % of control

SMILES: Cc1cc(/C=C/c2ccc3cc(N(C)C)ccc3[n+]2C)c(C)n1-c1ccccc1
- T/C (endpoint: mean survival time, dose: 0.1 mg/kg/injection, schedule: Q01DX009 (ip), vehicle: saline with Tween-80): 95 % of control
- T/C (endpoint: mean survival time, dose: 0.2 mg/kg/injection, schedule: Q01DX009 (ip), vehicle: saline with Tween-80): 95 % of control
- T/C (endpoint: mean survival time, dose: 0.39 mg/kg/injection, schedule: Q01DX009 (ip), vehicle: saline with Tween-80): 98 % of control
- T/C (endpoint: mean survival time, dose: 0.78 mg/kg/injection, schedule: Q01DX009 (ip), vehicle: saline with Tween-80): 101 % of control

SMILES: Cc1cccc2c1NC(=O)C2=O
- T/C (endpoint: median survival time, dose: 100.0 mg/kg/injection, schedule: Q04DX002 (ip), vehicle: saline with Tween-80): 94 % of control
- T/C (endpoint: median survival time, dose: 400.0 mg/kg/injection, schedule: Q04DX002 (ip), vehicle: saline with Tween-80): 105 % of control

SMILES: O=Nc1cc(S(=O)(=O)O)c2ccccc2c1O
- T/C [7]: 90 % of control
- T/C [1]: 97 % of control
- T/C [8]: 88 % of control and 109 % of control
- T/C [9]: 95 % of control
- T/C [3]: 97 % of control

SMILES: O=C(Nc1cccc2ccccc12)[C@H]1C[C@H]2C=C[C@@H]1C2
- T/C (endpoint: mean survival time, dose: 37.5 mg/kg/injection, schedule: Q01DX009 (ip), vehicle: saline with Tween-80): 101 % of control
- T/C (endpoint: mean survival time, dose: 75.0 mg/kg/injection, schedule: Q01DX009 (ip), vehicle: saline with Tween-80): 95 % of control
- T/C (endpoint: mean survival time, dose: 150.0 mg/kg/injection, schedule: Q01DX009 (ip), vehicle: saline with Tween-80): 95 % of control
- T/C (endpoint: mean survival time, dose: 300.0 mg/kg/injection, schedule: Q01DX009 (ip), vehicle: saline with Tween-80): 97 % of control

SMILES: Cn1cnc([N+](=O)[O-])c1[Se]c1nc(N)nc2nc[nH]c12
- T/C (endpoint: mean survival time, dose: 3.12 mg/kg/injection, schedule: Q01DX009 (ip), vehicle: water): 111 % of control
- T/C (endpoint: mean survival time, dose: 6.25 mg/kg/injection, schedule: Q01DX009 (ip), vehicle: water): 124 % of control
- T/C (endpoint: mean survival time, dose: 7.3 mg/kg/injection, schedule: Q01DX005 (ip), vehicle: water): 121 % of control
- T/C (endpoint: mean survival time, dose: 25.0 mg/kg/injection, schedule: Q01DX005 (ip), vehicle: water): 153 % of control
- T/C (endpoint: mean survival time, dose: 25.0 mg/kg/injection, schedule: Q01DX009 (ip), vehicle: water): 160 % of control
- T/C (endpoint: mean survival time, dose: 37.5 mg/kg/injection, schedule: Q01DX005 (ip), vehicle: water): 178 % of control
- T/C (endpoint: mean survival time, dose: 50.0 mg/kg/injection, schedule: Q01DX009 (ip), vehicle: water): 151 % of control

SMILES: CC(=O)OC1C(OC(C)=O)C(OC(C)=O)C(OS(C)(=O)=O)C(OC(=O)c2ccccc2)C1OC(C)=O (configuration not stated)
- T/C [10]: 96 % of control
- T/C [11]: 86 % of control
- T/C [12]: 91 % of control

SMILES: CN(C)c1ccc(Cc2ccc(N(C)C)nc2)cn1
- T/C [10]: 104 % of control
- T/C [11]: 98 % of control
- T/C [12]: 92 % of control

SMILES: [Au].[NH-]C1CCCCC1[NH-].[NH-]C1CCCCC1[NH-] (configuration not stated)
- T/C (endpoint: mean survival time, dose: 3.13 mg/kg/injection, schedule: Q04DX003 (ip), vehicle: saline): 97 % of control
- T/C (endpoint: mean survival time, dose: 6.25 mg/kg/injection, schedule: Q04DX003 (ip), vehicle: saline): 96 % of control
- T/C [13]: 97 % of control
- T/C [14]: 100 % of control

SMILES: CC(=O)NC1CCC(C(C)C)CC1 (configuration not stated)
- T/C (endpoint: mean survival time, dose: 50.0 mg/kg/injection, schedule: Q01DX001 (ip), vehicle: saline with Tween-80): 102 % of control

SMILES: COC1OC(COC(C)=O)C(OC2OC(COC(C)=O)C(OC(C)=O)C(OC(C)=O)C2OC(C)=O)C(OC(C)=O)C1OC(C)=O (configuration not stated)
- T/C [7]: 98 % of control
- T/C [8]: 104 % of control
- T/C [9]: 106 % of control

SMILES: CC(=O)N1CCCC2=C1CCCCCC2
- T/C [13]: 101 % of control
- T/C (endpoint: mean survival time, dose: 25.0 mg/kg/injection, schedule: Q01DX009 (ip), vehicle: saline): 110 % of control
- T/C [14]: 88 % of control
- T/C (endpoint: mean survival time, dose: 50.0 mg/kg/injection, schedule: Q01DX009 (ip), vehicle: saline): 115 % of control
- T/C (endpoint: mean survival time, dose: 50.0 mg/kg/injection, schedule: Q04DX003 (ip), vehicle: saline): 88 % of control
- T/C (endpoint: mean survival time, dose: 100.0 mg/kg/injection, schedule: Q01DX001 (ip), vehicle: saline): 96 % of control
- T/C (endpoint: mean survival time, dose: 100.0 mg/kg/injection, schedule: Q01DX009 (ip), vehicle: saline): 113 % of control
- T/C (endpoint: mean survival time, dose: 100.0 mg/kg/injection, schedule: Q04DX002 (ip), vehicle: saline): 102 % of control
- T/C [15]: 90 % of control
- T/C (endpoint: mean survival time, dose: 200.0 mg/kg/injection, schedule: Q01DX001 (ip), vehicle: saline): 102 % of control
- T/C (endpoint: mean survival time, dose: 200.0 mg/kg/injection, schedule: Q01DX009 (ip), vehicle: saline): 110 % of control
- T/C (endpoint: mean survival time, dose: 200.0 mg/kg/injection, schedule: Q04DX002 (ip), vehicle: saline): 98 % of control
- T/C (endpoint: mean survival time, dose: 200.0 mg/kg/injection, schedule: Q04DX003 (ip), vehicle: saline): 95 % of control
- T/C (endpoint: mean survival time, dose: 400.0 mg/kg/injection, schedule: Q01DX001 (ip), vehicle: saline): 93 % of control
- T/C (endpoint: mean survival time, dose: 400.0 mg/kg/injection, schedule: Q04DX002 (ip), vehicle: saline): 95 % of control
- T/C (endpoint: mean survival time, dose: 400.0 mg/kg/injection, schedule: Q04DX003 (ip), vehicle: saline): 91 % of control
- T/C (endpoint: mean survival time, dose: 500.0 mg/kg/injection, schedule: Q04DX002 (ip), vehicle: saline): 98 % of control
- T/C (endpoint: mean survival time, dose: 600.0 mg/kg/injection, schedule: Q01DX001 (ip), vehicle: saline): 93 % of control

SMILES: CC(=O)Nc1cscc1NC(C)=O
- T/C (endpoint: median survival time, dose: 12.5 mg/kg/injection, schedule: Q01DX009 (ip), vehicle: saline with Tween-80): 100 % of control
- T/C (endpoint: median survival time, dose: 25.0 mg/kg/injection, schedule: Q01DX009 (ip), vehicle: saline with Tween-80): 105 % of control and 111 % of control
- T/C (endpoint: median survival time, dose: 50.0 mg/kg/injection, schedule: Q01DX009 (ip), vehicle: saline with Tween-80): 91 % of control and 103 % of control
- T/C (endpoint: median survival time, dose: 100.0 mg/kg/injection, schedule: Q01DX009 (ip), vehicle: saline with Tween-80): 100 % of control and 101 % of control
- T/C (endpoint: median survival time, dose: 200.0 mg/kg/injection, schedule: Q01DX009 (ip), vehicle: saline with Tween-80): 102 % of control and 103 % of control
- T/C (endpoint: median survival time, dose: 400.0 mg/kg/injection, schedule: Q01DX009 (ip), vehicle: saline with Tween-80): 103 % of control and 108 % of control

SMILES: COc1cc(Cl)ccc1NC(=O)Nc1ccc(S(N)(=O)=O)cc1
- T/C [6]: 91 % of control
- T/C [7]: 100 % of control
- T/C [8]: 91 % of control

SMILES: C=C(NC(=O)CNC(=O)OCc1ccccc1)C(=O)O (Cbz-Gly-[Dha]-OH)
- T/C (endpoint: mean survival time, dose: 50.0 mg/kg/injection, schedule: Q04DX002 (ip), vehicle: saline with Tween-80): 102 % of control
- T/C (endpoint: mean survival time, dose: 100.0 mg/kg/injection, schedule: Q04DX002 (ip), vehicle: saline with Tween-80): 98 % of control
- T/C (endpoint: mean survival time, dose: 200.0 mg/kg/injection, schedule: Q04DX002 (ip), vehicle: saline with Tween-80): 96 % of control
- T/C (endpoint: mean survival time, dose: 400.0 mg/kg/injection, schedule: Q04DX002 (ip), vehicle: saline with Tween-80): 94 % of control

SMILES: CCCCC1CCC(N)CC1 (configuration not stated)
- T/C [15]: 96 % of control

SMILES: O=C(CCl)c1cccnc1C(=O)O
- T/C [1]: 98 % of control

SMILES: C[n+]1c(/C=C\c2ccc(Cl)cc2)ccc2ccccc21
- T/C (endpoint: mean survival time, dose: 3.13 mg/kg/injection, schedule: Q01DX009 (ip), vehicle: saline with Tween-80): 96 % of control
- T/C [4]: 98 % of control
- T/C (endpoint: mean survival time, dose: 6.25 mg/kg/injection, schedule: Q04DX003 (ip), vehicle: saline with Tween-80): 98 % of control
- T/C (endpoint: mean survival time, dose: 12.5 mg/kg/injection, schedule: Q04DX003 (ip), vehicle: saline with Tween-80): 90 % of control

— PubChem BioAssay AID256 (DTP/NCI, 2004)
